Measured values: article PMC2376372, “3-Bromophenyl 6-acetoxymethyl-2-oxo-2H-1-benzopyran-3-carboxylate inhibits cancer cell invasion in vitro and tumour growth in vivo” (British Journal of Cancer, 2003)
Where two headings read alike, the source gives them in different places. One block for each molecule: values may come before it.

Columns and labels:
[1] = system: HT1080 fibrosarcoma cells; assay: Chemotaxis assay, uncoated Transwell inserts; format: cell-based, human; details: 1 μM, 4 h, uncoated filters
Procedure: (§1) HT1080 cells exponentially growing in T-75 flasks (Nunc, Costar, Netherlands) were collected by trypsin–ethylenediaminetetraacetic acid treatment, washed with serum-containing medium and allowed to recover from trypsinisation for at least 30 min at 37°C. Cells were then washed twice in serum-free DMEM and diluted in the same medium supplemented with 0.1% bovine serum albumin (BSA, fraction V, Sigma, USA) to a cell density of 6 × 10^5 cells ml^−1.
(§2) The influence of coumarin derivatives (0.1, 1 and 10 μM) on HT1080 cell invasion and migration was assayed using Transwell cell culture inserts (Costar) and compared to the reference compound GI 129471 (1 μM), an MMP inhibitor ([Wheeler et al, 1998]).
(§3) For chemoinvasion assays, type IV collagen-coated membranes (see above) were used, whereas uncoated membranes were employed for chemotaxis assays. Lower wells of chambers were filled with DMEM supplemented with 20% FCS and 1% BSA (fraction V, ICN) as chemoattractant, in the presence or absence of coumarin derivative (final concentration 0.1, 1 and 10 μM) or GI 129471 (final concentration 1 μM). Cells (6 × 10^4) suspended in DMEM supplemented with 0.1% BSA (fraction V, ICN) were seeded in the upper wells. Chambers were subsequently incubated for 48 and 4 h for chemoinvasion and chemotaxis assays, respectively, in a humid atmosphere at 37°C (in order to maintain a chemotactic gradient, media from both lower and upper wells were renewed after 24 h). After incubation, filters were removed from the chambers, fixed in 4% paraformaldehyde for 15 min (4°C), permeabilised for 10 min in methanol (−20°C) and stained with Giemsa (4%) for 15 min. The upper surface of the filters was scrapped with a cotton swab and cells having reached the lower surface of the filters were visually counted using a light microscope (Vanox AH3, Olympus, Hamburg, Germany) at 20-fold magnification. Each assay was performed in triplicate. Results were expressed as percentages (±s.d.) of the migration of control cells.

[2] = system: HT1080 fibrosarcoma cells; assay: Chemoinvasion assay, type IV collagen-coated Transwell inserts (Boyden chamber); format: cell-based, human; details: type IV collagen-coated filters; for inhibition of HT1080 cell invasion (chemoinvasion) / inhibition at 1 µM: 1 μM; for inhibition of HT1080 cell invasion (chemoinvasion): 48 h; for inhibition at 1 µM / inhibition at 10 µM: Homo sapiens, HT-1080, 48 h, read-out: inhibition of HT1080 cell invasion (chemoinvasion)
Procedure: Plates (24-well) (Falcon, Becton-Dickinson, USA) and 6.5 mm polycarbonate filters (8 μm pore size) of Transwell cell culture chamber inserts (Costar, Netherlands) were coated with 100 μl of type IV collagen purified from human placenta diluted at 200 μg ml^−1 in phosphate-buffered saline (PBS). Coats were left to air-dry overnight in a laminar flow hood under UV light. Uniformity of the coating was assessed by Coomassie blue staining. Before use, coated plates and inserts were washed twice with water and incubated for at least 1 h in serum-free DMEM at 37°C ([Maquoi et al, 1999]).
as §1, §2, §3

α-CT = details: cited from earlier work; for ki/KI or kobs/[I], α-CT: pH 7.5, 25°C
HLE = molecular target: T1, HLE (Homo sapiens, UniProt P08246); details: cited from earlier work; for ki/KI or kobs/[I], HLE: pH 8.0, 25°C
T1 construct: purchased Elastase Products Co
T1 sequence (P08246 30-267): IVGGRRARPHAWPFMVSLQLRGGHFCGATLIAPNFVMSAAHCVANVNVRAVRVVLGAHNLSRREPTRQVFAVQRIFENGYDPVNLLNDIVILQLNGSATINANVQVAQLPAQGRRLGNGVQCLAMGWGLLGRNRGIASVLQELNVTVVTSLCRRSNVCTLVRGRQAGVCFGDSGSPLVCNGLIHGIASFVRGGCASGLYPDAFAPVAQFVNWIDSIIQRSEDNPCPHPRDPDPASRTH

LMW-uPA = molecular target: T2, LMW-uPA (Homo sapiens, UniProt P00749); assay: Inactivation of LMW-uPA (preincubation method); format: biochemical
T2 construct: Bovine α-CT and LMW-uPA (MW=33 000 Da) were purchased from Sigma; purchased Sigma
Procedure: (§4) Bovine α-CT and LMW-uPA (MW=33 000 Da) were purchased from Sigma, HMW-uPA (MW=54 000 Da) from Choay, trypsin (TRY) and THR from Boehringer-Indelheim (Germany), and MMP-2 and MMP-9 from Calbiochem. Human leucocyte elastase and PM were from Elastase Products Co. and Biogenic, respectively. Except for THR, HMW-uPA, MMP-2 and MMP-9, enzyme concentrations were determined by active-site titrations using the appropriate titrant ([Bender et al, 1966]; [Chase and Shaw, 1970]; [Powers and Gupton, 1977]). […]
(§5) The kinetic parameters for the inhibition were determined either by the preincubation method for LMW-uPA and PM (small aliquots of the reaction mixture were withdrawn at intervals of time and the remaining activity determined), or by the progress curve method (HLE) when the inhibition was too fast to be measured accurately using the preincubation method. […]
(§6) At low inhibitor concentrations, the ratio ki/KI was obtained as kobs/[I]0. […] In the progress curve method, the substrate competes with the inhibitor and the kinetic parameters are determined as previously described ([Doucet et al, 1999]). […]

Plasmin = molecular target: T3, Plasmin (Homo sapiens, UniProt P00747); assay: Inactivation of plasmin (preincubation method); format: biochemical; details: pH 7.5, read-out: ki/KI or kobs/[I], Plasmin
T3 construct: No; X′; α-CT; HLE; LMW-uPA; Plasmin; purchased Biogenic
Procedure: as §4, §5, §6

T3 sequence (P00747 581-810 limits assumed, species assumed): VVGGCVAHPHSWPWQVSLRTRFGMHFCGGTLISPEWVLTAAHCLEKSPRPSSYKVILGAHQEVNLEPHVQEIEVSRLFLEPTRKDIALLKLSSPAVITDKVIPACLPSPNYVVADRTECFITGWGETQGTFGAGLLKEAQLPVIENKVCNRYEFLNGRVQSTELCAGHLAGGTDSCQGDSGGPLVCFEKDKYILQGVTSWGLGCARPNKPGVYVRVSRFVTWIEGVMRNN
T3 sequence (P00747 97-580 partner limits assumed, species assumed): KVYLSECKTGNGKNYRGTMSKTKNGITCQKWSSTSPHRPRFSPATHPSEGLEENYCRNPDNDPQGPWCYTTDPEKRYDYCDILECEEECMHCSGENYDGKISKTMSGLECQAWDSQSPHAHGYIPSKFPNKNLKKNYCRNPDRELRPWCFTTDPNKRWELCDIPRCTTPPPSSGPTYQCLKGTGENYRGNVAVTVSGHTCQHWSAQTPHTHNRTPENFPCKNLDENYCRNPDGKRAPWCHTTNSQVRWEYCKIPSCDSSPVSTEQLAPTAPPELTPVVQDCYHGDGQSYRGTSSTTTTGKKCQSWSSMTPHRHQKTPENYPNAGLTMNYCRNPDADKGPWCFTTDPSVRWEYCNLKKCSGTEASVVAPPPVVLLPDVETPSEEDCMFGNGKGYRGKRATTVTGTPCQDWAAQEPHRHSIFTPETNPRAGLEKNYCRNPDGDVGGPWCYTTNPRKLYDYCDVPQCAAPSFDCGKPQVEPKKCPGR

SMILES: CNC(=O)[C@H](Cc1ccccc1)NC(=O)[C@H](CC(C)C)[C@H](CSc1ccccc1)C(=O)NO [GI 129471, reference compound]
chemotaxis inhibition [1]: 30%
chemotaxis inhibition ([1]; listed as reference compound): 20–30%
inhibition of HT1080 cell invasion (chemoinvasion) [2]: 60%

SMILES: CC(=O)OCc1ccc2oc(=O)c(C(=O)Oc3ccccc3)cc2c1 [compound 5]
inhibition at 1 µM [2]: 30%
inhibition at 10 µM [2]: 50 to 60%

melting point: 170 to 172 °C
SMILES: CC(=O)OCc1ccc2oc(=O)c(C(=O)Oc3cccc(F)c3)cc2c1 [compound 6]
inhibition at 1 µM [2]: 80%

melting point: 169 to 170 °C
SMILES: CC(=O)OCc1ccc2oc(=O)c(C(=O)Oc3cccc(I)c3)cc2c1 [compound 8]
inhibition of HT1080 cell invasion (chemoinvasion) [2]: quite similar to that observed with the reference compound

SMILES: O=C(Oc1cccc(Cl)c1)c1cc2ccccc2oc1=O [compound 1]
ki/KI or kobs/[I], α-CT (α-CT; ref Pochet et al (2000)): <500^a M^−1 s^−1
inhibition at 1 µM [2]: 50%
inhibition at 10 µM [2]: 65%
ki/KI or kobs/[I], HLE (HLE; ref Pochet et al (2000)): 610^a M^−1 s^−1

SMILES: Cc1ccc2oc(=O)c(C(=O)Oc3cccc(Cl)c3)cc2c1 [compound 2]
ki/KI or kobs/[I], α-CT (α-CT; ref Pochet et al (2000)): 9400^a M^−1 s^−1
inhibition at 1 µM [2]: 50%
inhibition at 10 µM [2]: 70%
ki/KI or kobs/[I], HLE (HLE; ref Pochet et al (2000)): 1100^a M^−1 s^−1

SMILES: O=C(Oc1cccc(Cl)c1)c1cc2cc(CCl)ccc2oc1=O [compound 3, 3-chlorophenyl 6-chloromethyl-2-oxo-2H-1-benzopyran-3-carboxylate]
ki/KI or kobs/[I], α-CT (α-CT; ref Pochet et al (1996)): 762700^b M^−1 s^−1
mode of inhibition of α-CT (α-CT; ref Pochet et al, 1996, 2000): suicide substrate leading to enzyme irreversible inhibition
inhibition at 10 µM [2]: 30%
kinact/KI (LMW-uPA; pH 7.5, read-out: ki/KI or kobs/[I], LMW-uPA): 336 M⁻¹ s⁻¹
reactivation of inhibited LMW-uPA (LMW-uPA; spontaneously after 18 h incubation or after treatment with NH2OH (pH 7.5, 25°C)): No reactivation
ki/KI or kobs/[I], HLE (HLE; ref Pochet et al (1996)): 630^b M^−1 s^−1
mode of inhibition of HLE (HLE; ref Pochet et al, 1996, 2000): transiently inactivated
kinact/KI (Plasmin): 600 M⁻¹ s⁻¹
